Test results taken from PubChem BioAssay AID977628 (Broad Institute, 2014).
Records with an inconclusive call do not appear. Active and inactive are the calls of the source.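 Rule for the calls: active = compound lowering the normal-ribosome reporter at least twice as much as the humanized-ribosome reporter, growth loss under a set limit; inconclusive = no clear call, values can overlap the other calls; inactive = the rest.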

Tests used:
[1] = test system: E. coli WT GFP strain growth, fluorescence, 24 h; assay: E. coli growth inhibition, wild-type GFP versus h24 humanized RFP strain, dose response, h24 mutant RFP vs wild-type GFP, cherry-pick (AID 977628)
[2] = test system: E. coli mixed WT/h24 culture total growth, OD600, 24 h; assay: as above

Compound	AC50 [1]	AC50 [2] [µM]
COc1ccc(CNC(=O)c2cc3c(s2)CN(Cc2ccccc2)C3)cc1	> 100 µM (inactive)	> 100
CCOC(=O)c1ccc(CC(=O)c2oc3cc(O)ccc3c2C)o1	> 100 µM (inactive)	> 100
Cc1cccc(-c2ccc([C@H]3[C@H](CO)N4CCCCN(S(=O)(=O)c5ccccc5C)C[C@@H]34)cc2)c1	> 100 µM (inactive)	> 100
Cc1cc(C)n(CC(O)COc2ccc3ccccc3c2)n1 (centres undefined)	> 100 µM (inactive)	> 100
Nc1ncncc1-c1ccc(Cl)cc1	> 100 µM (inactive)	> 100
CCOC(=O)Cc1nnc(NC(=O)CSc2nc3ccccc3[nH]2)s1	–	> 100
CCOC(=O)c1cc(-c2ccc(OC)cc2)n[nH]1	–	> 100
COc1ccc(/C=C/c2nc3ccccc3n2Cc2ccccc2OC)cc1	–	> 100
COc1cccc(NC(=O)COC(=O)Cc2ccc(Br)cc2)c1	–	> 100
CCC(C(=O)Nc1ccsc1C(=O)OC)c1ccccc1 (centres undefined)	–	> 100
CN1OC[C@@H]2CN(C(=O)c3ccco3)[C@H](c3ccc(-c4ccc(C#N)cc4)cc3)C[C@@H]21	–	> 100
CCOC(=O)CN1C(=O)C(CC)Oc2ccc(Cl)cc21 (centres undefined)	–	> 100
O=C(NC1CCCCC1)C(c1cccc2ccccc12)n1c(=O)c(-c2ccco2)nc2ccccc21 (centres undefined)	–	> 100
Cc1ccsc1C(=O)C1CCCN(Cc2cc(F)ccc2-n2cccn2)C1 (centres undefined)	–	> 100
COCc1c(C#N)c(NCCc2ccc(F)cc2)nc(C)c1[N+](=O)[O-]	–	> 100
COC(=O)c1cc(S(=O)(=O)NCc2ccc3c(c2)OCO3)cn1C	–	> 100
O=C(Nc1ccccc1N1CCOCC1)C1CCCCN1S(=O)(=O)c1ccccc1 (centres undefined)	–	> 100
OCCN(Cc1ccccc1)Cc1ccc(F)c(F)c1	–	> 100
COc1ccc(CC(=O)Oc2ccc(C)cc2C)cc1	–	> 100
Cc1ccnc(NS(=O)(=O)c2ccc(NC(=O)c3ccc4c(c3)OCCO4)cc2)n1	–	> 100
CN(Cc1nnc(-c2ccc(F)cc2)o1)c1ccccc1	–	> 100
COc1ccc(NC(=O)c2cccs2)cc1C(=O)N1CCN(c2ccccc2)CC1	–	> 100

Compound	AC50 [1]	AC50 [2] [µM]
CCN(C(=O)COC(=O)CCc1ccccc1)c1ccccc1	–	> 100
Brc1ccccc1Cn1c(-c2cncs2)nc2ccccc21	–	> 100
COc1ccc2c(c1)-c1nc(N)sc1CC2	–	> 100
Cc1cccc(SCC(=O)Nc2ccccc2[N+](=O)[O-])c1	–	> 100
O=C(Nc1cccc(S(=O)(=O)c2cccc(NC(=O)C3CC3)c2)c1)C1CC1	–	46.7
COC(=O)c1cc2c(c3c4cc(F)ccc4n(S(=O)(=O)c4cccc(C)c4)c13)C(=O)N(Cc1ccco1)C2	–	> 100
COc1cc(OC)c(NS(=O)(=O)c2cccc(C(=O)OCC(=O)NCC3CCCO3)c2)cc1Cl (centres undefined)	–	> 100
COc1ccc(-c2csc(NC(=O)c3ccoc3C)n2)cc1	–	> 100
c1ccc(Nc2ccc3ccccc3c2)cc1	–	> 100
CN(CC(=O)Nc1ccc(F)cc1)C(=O)COc1ccc([N+](=O)[O-])cc1Cl	–	> 100
Cc1ccc(Cc2c(-c3cccc(Br)c3)nc3ccc(C)cn23)cc1	–	> 100
Cc1cc(C(C)(C)C)oc1C(=O)N(CC(=O)NC1CCCC1)c1c(C)cccc1C	–	> 100
Cc1cccc(NC(=O)c2c(C)nn(-c3ccccc3)c2Cl)c1	–	> 100
O=C(Nc1ccc(Cl)cn1)c1ccc([N+](=O)[O-])o1	–	> 100
CCCn1c(C(C)Nc2nc(-c3ccc(C)cc3)cs2)nc2ccccc21 (centres undefined)	–	> 100
O=C(c1sc2ccccc2c1Cl)N1CCC2(CC1)OCCO2	–	> 100
O=S(=O)(NOCc1ccc(Cl)cc1)c1ccc(Cl)cc1	–	> 100
CCOc1ccc(C(C)=O)cc1CN1C(=O)NC2(CCCCCCC2)C1=O	–	> 100
Cc1ccc(NC(=O)c2ccc([N+](=O)[O-])s2)cc1S(=O)(=O)N1CCOCC1	–	> 100
CCN(CC)CC(=O)Nc1sc2c(c1C(=O)c1ccccc1OC)CCC2	–	> 100
COc1ccc(C(=O)NCCC2=CCCCC2)cc1[N+](=O)[O-]	–	> 100
CC(C)Oc1nc(-c2ccccc2Cl)nc2ccccc12	–	> 100

Compound	AC50 [1]	AC50 [2] [µM]
Cc1cccc(C)c1NC(=O)CNC(=O)C(C)N1CCN(c2cccc(Cl)c2)CC1 (centres undefined)	–	> 100
Cc1cc(C)c(OCCN(C)Cc2ccccc2)c(Br)c1	–	> 100
CS(=O)(=O)Nc1ccccc1C(=O)NCCSc1ccccc1	–	> 100
CCCNc1ccc(C(=O)OCC)cc1[N+](=O)[O-]	–	> 100
CC(=O)NCCOc1nc(N2CCCCC2)nc(N2CCCCC2)n1	–	> 100
Fc1ccc(Br)cc1SCCc1ccncc1	–	> 100
O=S(=O)(Nc1ccccc1N1CCCCC1)c1cccs1	–	> 100
COc1cc2ccccc2cc1C(=O)NCC(c1cccs1)N(C)C (centres undefined)	–	> 100
CCCCc1cc2c(cc1NC(=O)CN1CCCCC1)OCCO2	–	> 100
CC1CCC2(CC1)SCC(=O)N2c1ccc(F)cc1 (centres undefined)	–	> 100
CCN(CC)c1nc(Oc2ccc(C(=O)OC)cc2)nc(N2CCOCC2)n1	–	> 100
CN1CCN(CC(=O)c2cc(C(C)(C)C)c(O)c(C(C)(C)C)c2)CC1	–	> 100
O=C(c1cc(S(=O)(=O)N2CCOCC2)ccc1Cl)N1CCc2ccccc2C1	–	> 100
Cc1ccc(S(=O)(=O)NC(C)C(=O)NCc2ccc(Cl)cc2)cc1 (centres undefined)	–	> 100
Cc1nn2c(NCc3ccccn3)cc(C(C)C)nc2c1-c1ccccc1	–	> 100
S=c1nc(-c2cccc(Br)c2)[nH][nH]1	–	> 100
CN(C)CCNc1ncnc2c1sc1nc(N3CCCC3)c3c(c12)CC(C)(C)OC3	–	> 100
COc1cc(CCN(C(=O)c2cc3ccccc3[nH]2)C(c2ccccn2)c2nc3ccccc3[nH]2)cc(OC)c1 (centres undefined)	–	> 100
O=C(CN1CCCCC1)n1c2ccccc2c2ccccc21	–	> 100
Cc1ccn2cc(-c3cccc(NC(=O)c4cccs4)c3)nc2c1	–	> 100
